According to patent US20140336141A1, “MAO-B INHIBITORS DERIVED FROM THE ONE-CARBON CYCLE” (RANDOX LABORATORIES LTD., priority 2011, published 2014):

Legend:
Mao-B [1] = assay: Mao-B protein levels by Western blot in differentiated SH-SY5Y cells; type: cell-based; conditions: for Densitometric quantification Exp. 1 / Densitometric quantification Exp. 2 / Densitometric quantification Exp. 3: Mao-B Western blot band signal, Aza 625 nM, SAM 25 μM, Vit B6 5 μg/ml, Vit B12 7.5 μg/ml; for Densitometric quantification Exp. 1 / Densitometric quantification Exp. 2 / Densitometric quantification Exp. 3 / % MAO-B of untreated cells Exp. 1 / % MAO-B of untreated cells Exp. 2 / % MAO-B of untreated cells Exp. 3: differentiated SH-SY5Y cells treated Days 8 to 12; for % MAO-B of untreated cells Exp. 1 / % MAO-B of untreated cells Exp. 2 / % MAO-B of untreated cells Exp. 3: untreated set 100%; for % MAO-B of untreated cells Average: differentiated SH-SY5Y cells, average of the experiments
Experimental: The neuroblastoma cell line SH-SY5Y was seeded at 110,000 cell/6-well. Neuronal differentiation treatment was started on the next day (=Day 0) by addition of 10 μM retinoic acid every second day until Day 6. On Day 8 differentiation treatment was switched to 4 μM uridine (Ur), 5 μM 5-fluoro-2′-deoxyuridine FdUr), and 1 μM cytosine beta-D-arabinofuranoside (araC). During mitotic inhibitor addition (=Days 8 to 12) cells were left untreated or treated with 625 nM 5-aza-2′-deoxycytidine (Aza), 25 μM S-adenosylmethionine (SAM), 5 μg/ml vitamin B6 (Vit B6), 7.5 μg/ml vitamin B12 (Vit B12), or 5 μg/ml vitamin B6/7.5 μg/ml vitamin B12. On Day 12 cells were harvested. Cells were washed twice with chilled PBS, scraped off in PBS/protease inhibitors, and centrifuged at 15000×g at 4 C for 10 min. The pellet was reconstituted in 150 μl PBS/protease inhibitors and precipitated with 50 μl trichloroacetic acid/80 mMDTT for 1 hour at 4 C. After centrifugation at 15000×g at 4 C for 10 min, precipitated protein was washed four times with 0.6 ml acetone/20 mM DTT and stored at −80 C until analysis. The dried total protein pellet was reconstituted in 7M urea/2M thiourea/4% CHAPS buffer and the protein concentration was determined using the Coomassie Plus (Bradford) Protein Assay (Pierce, Thermo Scientific). Equal protein amounts were loaded onto an 11% SDS polyacrylamide gel and proteins were blotted onto nitrocellulose. Mao-B was detected using a polyclonal Goat anti-Mao-B antibody (sc18401, Santa Cruz) and DyLight 649 AffiniPureF(ab′)2 Fragment Donkey Anti-Goat IgGgamma (Jackson ImmunoResearch Laboratories, Inc.), and a Typhoon scanner (GE Healthcare Life Sciences). Results were analysed with the software ImageJ. The signals of the Mao-B bands of SAM treated and untreated differentiated SH-SY5Y cells were compared and the latter was set 100%.

Mao-B [2] = assay: MAO-B protein expression by Western blot in HepG2 cells, normalised against GAPDH and 14-3-3 gamma; type: cell-based; conditions: 10 μM 5-aza-2-deoxycytidine for 1, 2, or 3 days; FIG. 3
Experimental: HepG2 cells were grown in DMEM low glucose/10% FBS and were treated with 10 μM 5-aza-2-deoxycytidine for 1, 2, or 3 days. Untreated HepG2 cells served as controls. Cells were scraped in precipitation buffer (PBS/25% trichloroacetic acid/20 mM DTT/protease inhibitors) at 4 C and proteins were precipitated for 1 hour at 4 C. Precipitated proteins were pelleted at 15000 rpm for 10 min (4 C) and washed 4 times with 700 μl acetone/20 mM DTT. Before analysis by SDS PAGE and Western blot, the precipitated samples were reconstituted in DIGE buffer/1% pH 4-7 ampholyte. Six parallel experiments were performed. […] Two normalisation compounds were used: GAPDH (glyceraldehyde 3-phosphate dehydrogenase) and 14-3-3 gamma (protein kinase C inhibitor protein 1). Each Mao-B band signal was divided by the respective GAPDH or 14-3-3 gamma band signal to achieve normalisation.
HepG2 cells were grown in DMEM low glucose/2% FBS and were treated with vitamin B6 (300 μg/ml) and vitamin B12 (74.4 μg/ml) for 1, 3, 4, 5 and 7 days. Untreated HepG2 cells served as controls. Cells were harvested and analysed by Western blot.

platelet MAO activity = conditions: LOAD patients, vitamin B12 therapy; cited from earlier work

vitamin B6 [Vit B6]
Densitometric quantification Exp. 1 (Mao-B [1]): 4087.1
Densitometric quantification Exp. 2 (Mao-B [1]): 1008.1
Densitometric quantification Exp. 3 (Mao-B [1]): 1004.8
% MAO-B of untreated cells Exp. 1 (Mao-B [1]): 99%
% MAO-B of untreated cells Exp. 2 (Mao-B [1]): 90%
% MAO-B of untreated cells Exp. 3 (Mao-B [1]): 90%
% MAO-B of untreated cells Average (Mao-B [1]): 93%

Nc1ncn([C@H]2C[C@H](O)[C@@H](CO)O2)c(=O)n1 [Aza, 5-aza-2′-deoxycytidine]
Densitometric quantification Exp. 2 (Mao-B [1]): 1116.9
Densitometric quantification Exp. 3 (Mao-B [1]): 973.5
% MAO-B of untreated cells Exp. 2 (Mao-B [1]): 100%
% MAO-B of untreated cells Exp. 3 (Mao-B [1]): 87%
% MAO-B of untreated cells Average (Mao-B [1]): 94%
MAO-B protein expression in HepG2 cells (Mao-B [2]): increased levels of MAO-B are expressed

vitamin B12 [Vit B12]
Densitometric quantification Exp. 1 (Mao-B [1]): 3823.5
Densitometric quantification Exp. 2 (Mao-B [1]): 857.8
Densitometric quantification Exp. 3 (Mao-B [1]): 695.3
% MAO-B of untreated cells Exp. 1 (Mao-B [1]): 93%
% MAO-B of untreated cells Exp. 2 (Mao-B [1]): 77%
% MAO-B of untreated cells Exp. 3 (Mao-B [1]): 62%
% MAO-B of untreated cells Average (Mao-B [1]): 77%
platelet MAO activity (platelet MAO activity): significantly reduced

C[S+](CC[C@H](N)C(=O)O)C[C@H]1O[C@@H](n2cnc3c(N)ncnc32)[C@H](O)[C@@H]1O (stereo partly shown) [SAM, S-adenosylmethionine]
Densitometric quantification Exp. 1 (Mao-B [1]): 2482.6
Densitometric quantification Exp. 2 (Mao-B [1]): 990.4
Densitometric quantification Exp. 3 (Mao-B [1]): 1006.8
% MAO-B of untreated cells Exp. 1 (Mao-B [1]): 60%
% MAO-B of untreated cells Exp. 2 (Mao-B [1]): 89%
% MAO-B of untreated cells Exp. 3 (Mao-B [1]): 90%
% MAO-B of untreated cells Average (Mao-B [1]): 80%
